Data reported in patent publication US20240300945A1, “CLY SERIES COMPOUND, PREPARATION METHOD THEREFOR AND USE THEREOF IN PREPARATION OF DRUGS” (NANJING WELLBEST PHARMACEUTICAL CO., LTD, priority 2021, published 2024).

Key:
RA model = assay: Rheumatoid arthritis (RA) model (Freund's adjuvant complete); type: in vivo, Wistar rats; conditions: RA rats, gavage 10 mg/kg once a day, 21 days; for IL-10 in serum / IL-17 in serum: ELISA; for Joint score (arthritis score): maximum 16 points
Procedure: Freund's Adjuvant Complete (FCA, purchased from Sigma, USA); IL-10 ELISA kit (Lianke Biotechnology Co., Ltd.); IL-17 ELISA kit (Raybiotech, USA). Eighteen 5-week-old female Wistar rats were randomly divided into the control group, RA model group, and CLY series compound treatment group, with 6 rats in each group. The control group: disinfected the right toe of rats with 75% alcohol, and injected 0.15 mL physiological saline subcutaneously into the right toe of rats. The RA model group: On the first day of the experiment, each rat was routinely disinfected, and 0.15 mL of FCA was injected subcutaneously into the right foot of the rat. The CLY series compound treatment group: On the first day after the experiment, each rat was routinely disinfected, and 0.15 mL of FCA was injected subcutaneously into the right plantar of the rat. After 7 days, CLY series compound was administered by gavage with a dose of 10 mg/kg once a day. The RA model group and control group were administered by gavage with normal saline (10 mg/kg·d) every day for 21 consecutive days. On the 21st day after the intervention of CLY series compounds, 3 mL of blood was collected from the heart of rats, and the serum was isolated. The levels of IL-10 and IL-17 in the serum of rats were detected by ELISA. After the 21st day of intervention, the arthritis score of each group of rats was measured, and the swelling degree of the right toe joint of each group of rats was measured. According to the inflammatory reaction of RA rats, the severity of the ankle joint was scored as 0 to 4, which was normal; 1 point, slightly red and slightly swollen ankle joint; 2 points: erythema and slight swelling from ankle joint to metatarsal joint or metacarpal joint; 3 points: erythema and moderate swelling from ankle joint to metacarpal joint or metatarsophalangeal joint; 4 points, the ankle joint to toe joint were severely red and swollen. Added the limb scores of each rat as the arthritis score, and the maximum score was 16 points.

[1] = tested on: rat pulmonary fibrosis model; assay: Rat pulmonary fibrosis model (bleomycin); type: in vivo, Wistar rats; conditions: 3 mg/kg·d tail vein, 14 days; for VEGFprotein in lung tissue / MMP-2 expression in lung tissue / MMP-9 expression in lung tissue / TIMP-1 expression in lung tissue / VEGF-mRNA in lung tissue: rat lung; for VEGFprotein in lung tissue: ELISA; for MMP-2 expression in lung tissue / MMP-9 expression in lung tissue / TIMP-1 expression in lung tissue: immunohistochemistry; for VEGF-mRNA in lung tissue: reverse transcription PCR; for CAT in peripheral blood / SOD in peripheral blood: rat peripheral blood
Procedure: (1) Reagents: bleomycin (4 mg/dose, Tianjin Taihe Pharmaceutical Co., Ltd.), mouse anti-mouse MMP monoclonal antibody (NEO Mark-ers Company), mouse anti-mouse TIMP-1 polyclonal antibody (Wuhan Shide Company), enzyme-linked immunosorbent assay (ELISA) kit (R&D Company of the United States), Quantscript RT Kit reverse transcription kit (Dalian TaKaRa Company).
The rats were, according to the number of body weight, divided into the blank control group, model group, and CLY series treatment group by random array method, with 12 rats in each group, half male and half female. The rats in each group were anesthetized by intraperitoneal injection of 2% pentobarbital sodium ([…]), fixed on the operating table, and injected by tracheotomy in the neck. The blank control group was injected with normal saline (1.25 ml/kg), and the model group and CLY treatment group were injected with 5 U/mL bleomycin solution (5 mg/kg), once a day, for 14 consecutive days. From one week after the establishment of the model, the corresponding CLY compound solution (3 mg/kg·d) was injected into the tail vein of each treatment group, and the same amount of normal saline was injected into the tail vein of the blank control group and the model group, once a day, for 14 consecutive days.
The peripheral venous blood of animals in each group was taken from the tail vein after modeling and 14 days after treatment, and the levels of superoxide dismutase (SOD) and catalase (CAT) in peripheral blood were measured. After taking blood from each group, the rats were sacrificed twice (after modeling and 14 days of treatment). The right lung tissue of the animals was stored in a refrigerator at −4° C. for detection of VEGF. The left lung tissue was routinely embedded in paraffin and sectioned. The expression of MMP subtype and TIMP-1 in the lung tissue of the rats was detected by immunohistochemistry. The right lung tissue was ground and homogenized, and the supernatant was taken after 3000 r/min high-speed centrifugation. The lung tissue VEGF protein was detected by ELISA, and the expression of VEGF-mRNA was detected by reverse transcription polymerase chain reaction.

Row | SMILES | Body mass (RA model) [g] | Swelling degree (right toe joint) (RA model) [mm] | IL-10 in serum (RA model) [pg/mL] | IL-17 in serum (RA model) [pg/mL] | Joint score (arthritis score) (RA model) | VEGFprotein in lung tissue [1] [pg/mL] | MMP-2 expression in lung tissue [1] | MMP-9 expression in lung tissue [1] | TIMP-1 expression in lung tissue [1] | VEGF-mRNA in lung tissue [1] | CAT in peripheral blood [1] [kU/g] | SOD in peripheral blood [1] [U/ml]
1 | CN1CCC[C@@H](N(C(=O)c2ccc(-n3nnc4cccnc43)cc2)c2ncccc2Cl)C1 [CLY-1, (R)-4-(3H-[1,2,3]triazolo[4,5-b]pyridin-3-yl)-N-(3-chloropyridin-2-yl)-N-(1-methylpiperidin-3-yl)benzamide] | 354.5 ± 13.48 | 9.7 ± 0.68 | 65.36 ± 6.78 | 46.15 ± 4.23 | 4.35 ± 0.37 | 52.16 ± 3.61 | 2.43 ± 0.21 | 3.32 ± 0.23 | 7.82 ± 0.45 | 0.76 ± 0.11 | 14.13 ± 1.22 | 214.58 ± 13.53
2 | CCN1CCC[C@@H](N(C(=O)c2ccc(-n3nnc4cccnc43)cc2)c2ncccc2Cl)C1 [CLY-2, (R)-4-(3H-[1,2,3]triazolo[4,5-b]pyridin-3-yl)-N-(3-chloropyridin-2-yl)-N-(1-ethylpiperidin-3-yl)benzamide] | 358.2 ± 13.92 | 9.4 ± 0.53 | 67.03 ± 7.02 | 46.23 ± 3.96 | 4.21 ± 0.29 | 51.18 ± 3.69 | 2.51 ± 0.24 | 3.36 ± 0.25 | 8.06 ± 0.49 | 0.71 ± 0.12 | 14.28 ± 1.39 | 216.62 ± 13.55
3 | O=C(c1ccc(-n2nnc3cccnc32)cc1)N(c1ncccc1Cl)[C@@H]1CCNC1 [CLY-8, (R)-4-(3H-[1,2,3]triazolo[4,5-b]pyridin-3-yl)-N-(3-chloropyridin-2-yl)-N-(pyrrolidin-3-yl)benzamide] | 363.5 ± 13.63 | 9.5 ± 0.72 | 66.75 ± 6.78 | 43.51 ± 4.16 | 4.32 ± 0.41 | 53.16 ± 3.62 | 2.44 ± 0.21 | 3.31 ± 0.21 | 8.82 ± 0.53 | 0.79 ± 0.13 | 14.75 ± 1.22 | 220.86 ± 13.78
4 | NC1CCCC(N(C(=O)c2ccc(-n3nnc4cccnc43)cc2)c2ncccc2Cl)C1 (stereo not shown) [CLY-11] |  |  |  |  |  | 49.86 ± 3.58 | 2.52 ± 0.23 | 3.53 ± 0.26 | 8.13 ± 0.38 | 0.76 ± 0.13 | 13.96 ± 1.36 | 216.48 ± 13.16
5 | O=C(c1ccc(-c2ccccc2Cl)cc1)N(c1ncccc1Cl)[C@@H]1CCCNC1 [CLY-36] | 352.6 ± 12.96 | 9.3 ± 0.51 | 58.96 ± 5.89 | 44.18 ± 3.97 | 4.46 ± 0.42 | 53.87 ± 3.73 | 2.59 ± 0.23 | 3.46 ± 0.25 | 7.63 ± 0.52 | 0.83 ± 0.13 | 13.26 ± 1.26 | 221.76 ± 13.57
